Eleven compounds from US11427553B2, “Dihydrooxadiazinones” (Bayer Aktiengesellschaft, priority 2017, dated 2022) can be followed below.

The target of one assay is human full length PDE3A (Homo sapiens (Human), UniProt Q14432). Description: Assay 4 PDE3A enzyme inhibition (3H-cAMP SPA). It counts as biochemical. The conditions noted are these: Sf9 cell extract. The method, then:
Assay 4 Method for PDE3A Enzyme Inhibition
(§1) The commercially available 3H-cAMP Scintillation Proximity Assay (SPA, Perkin Elmer) system was used for enzyme inhibition studies. For the determination of the in vitro effect of example compounds on the PDE3A reactions 2 μl of the respective example compound solution in DMSO (serial dilutions) were placed in wells of microtiter plates (Isoplate-96/200W; Perkin Elmer). 50 μl of a dilution of PDE3A cell extract from Sf9 cells overexpressing human full length PDE3A (SB Drug Discovery, UK) in buffer A (50 mM Tris/HCl pH 7.5, 8.3 mM MgCl2, 1.7 mM EDTA, 0.2% BSA) was added. The dilution of the PDE3A cell extract was chosen such that the reaction kinetics was linear and less than 70% of the substrate was consumed (typical dilution 1:5000). The reaction was started by addition of 50 μl (0.025 μCi) of 1:2000 in buffer A w/o BSA diluted substrate [8-3H]adenosine 3′, 5′-cyclic phosphate (1 μCi/μl; Perkin Elmer). After incubation at room temperature for 60 min, the reaction was stopped by addition of 25 μl of a suspension containing 18 mg/ml yttrium scintillation proximity beads (Perkin Elmer) in water. The microtiter plates were sealed and measured in a Microbeta scintillation counter (PerkinElmer Wallac). IC50 values were determined from sigmoidal curves by plotting percentage PDE3A activity vs log compound concentration.

The subject of another assay is HeLa cells. The experiment in a line: Assay 1 cell proliferation measurement (CTG, 72 h), HeLa. It counts as cell-based, human. The settings on record: Homo sapiens, HeLa; Assay 1, 72 h, Cell Titer Glo; read-out: HeLa IC50 [nM] (Cervical cancer). The method, boiled down:
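Growth inhibition relative to a 0 h baseline plate and 0.3% DMSO control, with IC50 fitted by 4-parameter curve. Compound exposure lasted 72 h at 37 °C across a 2.5-fold, 10-step series starting generally at 100 nM final.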

The target in another assay is human full length PDE3B (Homo sapiens (Human), UniProt Q13370). The experiment in a line: Assay 5 PDE3B enzyme inhibition (3H-cAMP SPA). It counts as biochemical. The settings on record: Sf9 cell extract. On the procedure: as §1, with “PDE3B” for “PDE3A”, “1:6000).” for “1:5000).”
Another assay concerns SK-MEL-3 cells. Description: Assay 1 cell proliferation measurement (CTG, 72 h), SK-MEL-3. The settings on record: Homo sapiens, SK-MEL3; Assay 1, 72 h, Cell Titer Glo; read-out: SK-MEL-3 IC50 [nM] (melanoma). It counts as cell-based, human. The method, then:
Cell Proliferation Measurement
The antiproliferative activity of the compounds of the general formula (I) was examined in vitro in human cancer cells. For this purpose, the appropriate number of cells (Hela: 800; SK-MEL-3: 1000; A549: 800) were plated in 384-well plates with appropriate growth medium ((A549: DMEM/Ham's F12 (Biochrom; #FG 4815 with stabile Glutamine), FCS 10% final (Biochrom; #S 0415); Hela: DMEM/Ham's F12 (Biochrom; #FG 4815 with stabile Glutamine), FCS 10% final (Biochrom; #S 0415); SK-MEL-3: McCoy's 5A (Biochrom; #F 1015), FCS 10% final (Biochrom; #S 0415), L-Alanyl-L-Glutamine final: 2 mM, (Biochrom; #K 0302)) and incubated at 37° C. overnight. After 24 h, cells on one plate (0 h plate) were treated with 30 μl/cavity of CTG solution (Promega Cell Titer Glo (catalogue #G755B and G756B)) and incubated at room temperature for 10 min, and luminescence was measured by means of a VICTOR V (Perkin Elmer), in order to determine cell viability on commencement of treatment. The cells on the test plate were treated with the compounds of the general formula (I) as and incubated at 37° C. for 72 h. The compounds were added to the cells by means of an HP D300 digital dispenser in a 10-step 2.5-fold dilution series generally starting at a maximum final drug concentration of 100 nM. As control, the cells were treated with vehicle (DMSO at 0.3% final concentration). After 72 h, the cells were treated with 30 μl/cavity of CTG solution (Promega Cell Titer Glo (catalogue #G755B and G756B)) and incubated at room temperature for 10 min. and luminescence was measured by means of a VICTOR V (Perkin Elmer), in order to determine cell viability at the end of treatment. The percentage effect on cell growth and the IC50 derived therefrom were determined for each test substance using the values from the 0 h plate […] and the DMSO control […]. The IC50 values were calculated using a 4-parameter fit.

Sequence of human full length PDE3B (Q13370 whole entry): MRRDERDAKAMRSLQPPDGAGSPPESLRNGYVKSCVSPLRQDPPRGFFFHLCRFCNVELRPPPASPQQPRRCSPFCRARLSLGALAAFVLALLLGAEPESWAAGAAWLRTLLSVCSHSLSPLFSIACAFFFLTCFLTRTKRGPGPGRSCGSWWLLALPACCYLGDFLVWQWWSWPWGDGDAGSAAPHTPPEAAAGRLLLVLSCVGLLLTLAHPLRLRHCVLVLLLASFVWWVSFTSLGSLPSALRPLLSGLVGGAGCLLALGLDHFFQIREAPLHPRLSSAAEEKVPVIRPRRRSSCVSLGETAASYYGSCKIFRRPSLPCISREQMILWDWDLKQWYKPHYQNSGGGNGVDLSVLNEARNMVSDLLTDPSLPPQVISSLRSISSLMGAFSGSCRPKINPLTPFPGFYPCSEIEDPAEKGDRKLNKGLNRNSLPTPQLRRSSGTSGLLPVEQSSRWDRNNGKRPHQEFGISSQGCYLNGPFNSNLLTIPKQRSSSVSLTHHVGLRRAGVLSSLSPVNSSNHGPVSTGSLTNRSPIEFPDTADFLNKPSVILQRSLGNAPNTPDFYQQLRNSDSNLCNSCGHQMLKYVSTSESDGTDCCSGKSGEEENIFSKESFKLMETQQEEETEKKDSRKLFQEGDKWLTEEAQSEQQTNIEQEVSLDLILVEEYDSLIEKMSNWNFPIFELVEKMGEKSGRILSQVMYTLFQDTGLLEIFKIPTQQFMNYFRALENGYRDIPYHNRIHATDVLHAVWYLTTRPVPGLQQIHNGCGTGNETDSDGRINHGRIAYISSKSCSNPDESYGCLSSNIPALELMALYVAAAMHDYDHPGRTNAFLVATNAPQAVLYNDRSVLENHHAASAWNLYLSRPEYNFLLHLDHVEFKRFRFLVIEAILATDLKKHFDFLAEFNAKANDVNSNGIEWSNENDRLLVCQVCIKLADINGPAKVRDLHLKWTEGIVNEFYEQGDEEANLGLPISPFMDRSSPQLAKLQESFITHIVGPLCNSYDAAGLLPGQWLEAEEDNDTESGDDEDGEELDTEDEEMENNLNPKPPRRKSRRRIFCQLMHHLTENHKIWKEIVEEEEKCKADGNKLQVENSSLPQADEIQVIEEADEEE
Sequence of human full length PDE3A (Q14432 whole entry): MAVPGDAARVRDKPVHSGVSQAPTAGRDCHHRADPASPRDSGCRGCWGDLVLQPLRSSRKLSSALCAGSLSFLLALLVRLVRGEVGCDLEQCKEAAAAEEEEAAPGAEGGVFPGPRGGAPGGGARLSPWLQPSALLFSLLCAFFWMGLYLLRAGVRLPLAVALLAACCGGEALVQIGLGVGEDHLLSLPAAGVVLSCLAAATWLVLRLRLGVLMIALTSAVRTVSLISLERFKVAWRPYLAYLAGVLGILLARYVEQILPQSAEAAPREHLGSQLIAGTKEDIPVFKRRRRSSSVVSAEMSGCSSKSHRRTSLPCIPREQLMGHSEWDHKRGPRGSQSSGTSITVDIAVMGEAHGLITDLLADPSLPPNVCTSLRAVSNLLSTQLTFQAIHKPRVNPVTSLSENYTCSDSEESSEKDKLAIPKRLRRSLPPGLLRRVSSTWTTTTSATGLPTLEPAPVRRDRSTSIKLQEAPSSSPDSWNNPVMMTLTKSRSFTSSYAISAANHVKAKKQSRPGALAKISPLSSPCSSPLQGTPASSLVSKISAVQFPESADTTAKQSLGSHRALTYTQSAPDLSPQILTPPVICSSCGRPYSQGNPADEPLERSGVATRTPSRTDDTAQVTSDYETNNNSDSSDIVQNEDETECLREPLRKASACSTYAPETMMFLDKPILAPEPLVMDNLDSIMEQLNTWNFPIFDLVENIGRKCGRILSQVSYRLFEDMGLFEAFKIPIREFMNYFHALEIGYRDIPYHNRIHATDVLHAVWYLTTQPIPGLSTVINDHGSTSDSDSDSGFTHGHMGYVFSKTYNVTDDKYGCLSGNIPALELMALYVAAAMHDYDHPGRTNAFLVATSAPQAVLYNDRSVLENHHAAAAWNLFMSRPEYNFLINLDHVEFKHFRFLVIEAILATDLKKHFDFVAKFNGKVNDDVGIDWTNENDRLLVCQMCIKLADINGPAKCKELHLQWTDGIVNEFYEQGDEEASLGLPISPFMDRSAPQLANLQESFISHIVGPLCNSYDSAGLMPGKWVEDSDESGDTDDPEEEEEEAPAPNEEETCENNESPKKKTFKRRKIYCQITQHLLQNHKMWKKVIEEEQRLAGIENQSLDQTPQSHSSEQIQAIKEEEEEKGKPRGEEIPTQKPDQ

`N#Cc1cc(C2=NNC(=O)OC2)cc(Cl)c1N1CCOCC1` [Example 23, 3-Chloro-2-(morpholin-4-yl)-5-(2-oxo-3,6-dihydro-2H-1,3,4-oxadiazin-5-yl)benzonitrile]: the IC50 was 380 nM on human full length PDE3A, 45 nM in the assay on HeLa cells, 270 nM against human full length PDE3B and greater than 100 nM in the assay with SK-MEL-3 cells.
The like results for `O=C1NN=C(c2ccc(Br)c(C(F)(F)F)c2)CO1` [Intermediate 78, 5-[4-bromo-3-(trifluoromethyl)phenyl]-3,6-dihydro-2H-1,3,4-oxadiazin-2-one] were, in that order, 140 nM, 8 nM, 180 nM and 20 nM.
On to `CC(C)=Cc1ccc(C2=NNC(=O)OC2)cc1C(F)(F)F` [Example 63, 5-[4-(2-Methylprop-1-en-1-yl)-3-(trifluoromethyl)phenyl]-3,6-dihydro-2H-1,3,4-oxadiazin-2-one], for which the IC50 against human full length PDE3A is 31 nM; in the assay with HeLa cells, 1 nM; at human full length PDE3B it was 33 nM; with SK-MEL-3 cells it was 3 nM.
The like results for `Cc1nc2cc(-c3ccc(C4=NNC(=O)OC4)cc3C(F)(F)F)ccc2[nH]1` [Example 326, 5-[4-(2-methyl-1H-benzimidazol-5-yl)-3-(trifluoromethyl)phenyl]-3,6-dihydro-2H-1,3,4-oxadiazin-2-one] were, in that order, 17 nM, greater than 100 nM, 30 nM and greater than 100 nM.
With `COc1cc(-c2ccc(C3=NNC(=O)OC3)cc2F)ccn1` [Example 95, 5-[3-Fluoro-4-(2-methoxypyridin-4-yl)phenyl]-3,6-dihydro-2H-1,3,4-oxadiazin-2-one], the IC50 on human full length PDE3A is 37 nM; in the assay with HeLa cells it was 33 nM; against human full length PDE3B, 79 nM; in the assay with SK-MEL-3 cells, greater than 100 nM.
For `O=C1NN=C(c2ccc(-c3cc(F)ccc3F)c(C(F)(F)F)c2)CO1` [Example 59, 5-[2′,5′-Difluoro-2-(trifluoromethyl)biphenyl-4-yl]-3,6-dihydro-2H-1,3,4-oxadiazin-2-one] the same measures were 150 nM, 18 nM, 250 nM and 38 nM.
For `Cc1ccc(-c2ccc(C3=NNC(=O)OC3)cc2F)cc1` [Example 88, 5-(2-Fluoro-4′-methylbiphenyl-4-yl)-3,6-dihydro-2H-1,3,4-oxadiazin-2-one] the same measures were 110 nM, 2 nM, 250 nM and 6 nM.
The like results for `CN(C)CCN(C)c1ccc(C2=NNC(=O)OC2)cc1C(F)(F)F` [Example 324, 5-[4-{[2-(dimethylamino)ethyl](methyl)amino}-3-(trifluoromethyl)phenyl]-3,6-dihydro-2H-1,3,4-oxadiazin-2-one] were, in that order, greater than 1000 nM, greater than 100 nM, greater than 1000 nM and greater than 100 nM.
Turning to `O=C1NN=C(c2ccc(-c3ccccn3)c(C(F)(F)F)c2)CO1` [Example 160, 5-[4-(Pyridin-2-yl)-3-(trifluoromethyl)phenyl]-3,6-dihydro-2H-1,3,4-oxadiazin-2-one], the IC50 against human full length PDE3A was greater than 1000 nM; with HeLa cells, 27 nM; on human full length PDE3B, greater than 1000 nM; in the assay with SK-MEL-3 cells, 47 nM.
Turning to `O=C1NN=C(c2ccc(-c3ccc(F)c(F)c3)c(F)c2)CO1` [Example 107, 5-(2,3′,4′-Trifluoro[1,1′-biphenyl]-4-yl)-3,6-dihydro-2H-1,3,4-oxadiazin-2-one], the IC50 against human full length PDE3A turned out to be 150 nM; with HeLa cells it was 6 nM; against human full length PDE3B it was 160 nM; in the assay with SK-MEL-3 cells, 12 nM.
The like results for `O=C1NN=C(c2ccc(-c3ccc(O)cc3)c(F)c2)CO1` [Example 105, 5-(2-Fluoro-4′-hydroxy[1,1′-biphenyl]-4-yl)-3,6-dihydro-2H-1,3,4-oxadiazin-2-one] were, in that order, 48 nM, 8 nM, 100 nM and 15 nM.
